Reference: patent publication US7863328B2, “Phenylbenzoic acid derivatives, processes for the preparation thereof, pharmaceutical compositions comprising them, and therapeutic uses thereof” (Merck Patent GmbH, priority 2005, dated 2011)

Target: T1, chimeric protein PPARγ-Gal4 (Homo sapiens, UniProt P37231)
T1 construct: expressed in transfected cells; host or cells: CV-1 cells (monkey kidney cells)
Test: PPARγ-Gal4 transactivation test (luciferase reporter) in cotransfected CV-1 cells
Format: cell-based
Description: The measurement of the PPAR activation was performed according to a technique described by Lehmann et al. (J. Biol. Chem., 270, (1995), 12953-12956).
CV-1 cells (monkey kidney cells) are cotransfected with an expression vector for the chimeric protein PPARγ-Gal4 and with a “reporter” plasmid that allows expression of the luciferase gene placed under the control of a promoter comprising Gal4 response elements.
The cells are seeded in 96-well microplates and cotransfected using a commercial reagent with the reporter plasmid (pG5-tk-pGL3) and the expression vector for the chimeric protein (PPARγ-Gal4). After incubation for 4 hours, whole culture medium (comprising 10% foetal calf serum) is added to the wells. After 24 hours, the medium is removed and replaced with whole medium comprising the test products. The products are left in contact with the cells for 18 hours. The cells are then lysed and the luciferase activity is measured using a luminometer. A PPARγ activation factor can then be calculated by means of the activation of the expression of the reporter gene induced by the product (relative to the control cells that have received no product).
In the absence of the PPARγ ligand binding domain (vector expressing Gal4 alone), the luciferase activity measured in the presence of this product is zero.
The following transactivation result was obtained with a concentration of 30 μM on PPARγ.
The transactivation test using the expression of a chimeric protein Gal-4-PPARγ makes it possible to determine also whether an agonist functions as a “full” agonist or as a “partial” agonist in this system.
An agonist is “partial” in this system if it induces a weaker response, i.e. it has lower efficacy, than rosiglitazone, which is a “full” agonist. In concrete terms, in our system, the transactivation obtained at the plateau with a partial agonist will be between 20% and 50% of the maximum response (efficacy) at the plateau of rosiglitazone.

T1 sequence (P37231 238-503 limits assumed, change not shown): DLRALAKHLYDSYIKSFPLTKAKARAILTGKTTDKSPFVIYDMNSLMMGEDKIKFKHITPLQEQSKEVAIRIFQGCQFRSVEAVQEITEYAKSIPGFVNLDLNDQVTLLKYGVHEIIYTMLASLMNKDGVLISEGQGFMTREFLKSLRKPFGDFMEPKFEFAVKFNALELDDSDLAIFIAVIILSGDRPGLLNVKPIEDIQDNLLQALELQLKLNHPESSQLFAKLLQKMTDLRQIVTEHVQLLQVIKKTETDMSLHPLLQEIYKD
T1 sequence (P04386 1-147 partner limits assumed): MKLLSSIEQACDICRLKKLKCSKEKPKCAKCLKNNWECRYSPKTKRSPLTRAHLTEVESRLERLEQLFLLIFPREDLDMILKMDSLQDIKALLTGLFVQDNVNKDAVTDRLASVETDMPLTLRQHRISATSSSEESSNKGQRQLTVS

Cc1oc(-c2ccccc2)nc1COc1cc2c(cc1-c1ccc(C(=O)O)cc1)CCC2=O [Example 4, 4-[6-(5-Methyl-2-phenyloxazol-4-ylmethoxy)-1-oxoindan-5-yl]-benzoic acid]
Concentration to reach the maximum stimulation of the PPARγ chimeric protein (Gal4-PPARγ transactivation, plateau): 6.25 µM | Emax (transactivation at the plateau as % of the maximum response (efficacy) of rosiglitazone, read-out: Maximum stimulation of the PPARγ chimeric protein obtained with rosiglitazone): 23%

Cc1cc(COc2cc3c(cc2-c2ccc(C(=O)O)cc2)CCC3=O)no1 [Example 29, 4-[6-(5-methylisoxazol-3-ylmethoxy)-1-oxoindan-5-yl]benzoic acid]
Activation factor of the chimeric protein PPARγ-Gal4 (concentration 30 μM, 18 hours contact, relative to control cells that have received no product (control = 1)): 16
